Experimental data from patent US20250098679A1, “HERBICIDAL PYRIDONE DERIVATIVES” (SYNGENTA CROP PROTECTION AG, priority 2021, published 2025).

Legend:
Format in all cases: in vivo
Conditions in all cases: evaluated after 13 days
Setaria faberi (SETFA) = test: Post-emergence Test, Setaria faberi (SETFA); set-up: key to percentage damage caused to the plant, SETFA (five-point scale): 5=81-100%, 4=61-80%, 3=41-60%, 2=21-40%, 1=0-20% damage
Summary of the method: (§1)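 Spray application at 1000 g/ha unless otherwise stated. Damage was scored 13 days later as 1 (0-20%) to 5 (81-100%).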

[1] = test system: Echinochloa crus-galli (ECHCG); test: Post-emergence Test, Echinochloa crus-galli (ECHCG); set-up: key to percentage damage caused to the plant, ECHCG (five-point scale): 5=81-100%, 4=61-80%, 3=41-60%, 2=21-40%, 1=0-20% damage
Summary of the method: as §1

Zea mays (ZEAMX) = test: Post-emergence Test, Zea mays (ZEAMX); set-up: key to percentage damage caused to the plant, ZEAMX (five-point scale): 5=81-100%, 4=61-80%, 3=41-60%, 2=21-40%, 1=0-20% damage
Summary of the method: as §1

[2] = test system: Ipomoea hederacea (IPOHE); test: Post-emergence Test, Ipomoea hederacea (IPOHE); set-up: key to percentage damage caused to the plant, IPOHE (five-point scale): 5=81-100%, 4=61-80%, 3=41-60%, 2=21-40%, 1=0-20% damage
Summary of the method: as §1

[3] = test system: Amaranthus palmeri (AMAPA); test: Post-emergence Test, Amaranthus palmeri (AMAPA); set-up: key: 5=81-100%, 4=61-80%, 3=41-60%, 2=21-40%, 1=0-20% damage
Summary of the method: as §1

[4] = test system: Amaranthus retoflexus (AMARE); test: Post-emergence Test, Amaranthus retoflexus (AMARE); set-up: key to percentage damage caused to the plant, AMARE (five-point scale): 5=81-100%, 4=61-80%, 3=41-60%, 2=21-40%, 1=0-20% damage
Summary of the method: as §1

| Structure (SMILES) | percentage damage caused to the plant, SETFA (five-point scale) (Setaria faberi (SETFA); 1000 g/ha) | percentage damage caused to the plant, ECHCG (five-point scale) ([1]; 1000 g/ha) | percentage damage caused to the plant, ZEAMX (five-point scale) (Zea mays (ZEAMX); 1000 g/ha) | percentage damage caused to the plant, IPOHE (five-point scale) ([2]; 1000 g/ha) | percentage damage caused to the plant, AMAPA (five-point scale) ([3]; 1000 g/ha) | percentage damage caused to the plant, AMARE (five-point scale) ([4]; 1000 g/ha) | percentage damage caused to the plant, SETFA (five-point scale) (Setaria faberi (SETFA); 250 g/Ha) | percentage damage caused to the plant, ECHCG (five-point scale) ([1]; 250 g/Ha) | percentage damage caused to the plant, ZEAMX (five-point scale) (Zea mays (ZEAMX); 250 g/Ha) | percentage damage caused to the plant, IPOHE (five-point scale) ([2]; 250 g/Ha) | percentage damage caused to the plant, AMAPA (five-point scale) ([3]; 250 g/Ha) | percentage damage caused to the plant, AMARE (five-point scale) ([4]; 250 g/Ha) |
| --- | --- | --- | --- | --- | --- | --- | --- | --- | --- | --- | --- | --- |
| CCOC(=O)c1c(-c2ccc(Cl)c(Cl)c2)n(CC)c(Cn2nccn2)cc1=O [Compound 58, ethyl 2-(3,4-dichlorophenyl)-1-ethyl-4-oxo-6-(triazol-2-ylmethyl)pyridine-3-carboxylate] | 1 (1=0-20%) | 1 (1=0-20%) | 0 | 0 | 0 | 1 (1=0-20%) |  |  |  |  |  |  |
| CCn1c(Cn2nc3c(c2C(F)F)COCC3)cc(=O)c(C(=O)O)c1-c1ccc(Cl)c(Cl)c1 [Compound 97, 2-(3,4-dichlorophenyl)-6-[[3-(difluoromethyl)-6,7-dihydro-4H-pyrano[4,3-c]pyrazol-2-yl]methyl]-1-ethyl-4-oxo-pyridine-3-carboxylic acid] |  |  |  |  |  |  | 0 | 1 (1=0-20%) | 1 (1=0-20%) | 0 | 1 (1=0-20%) | 1 (1=0-20%) |
| CCOC(=O)c1c(-c2ccc(Cl)c(Cl)c2)n(CC)c(Cn2ccnc2)c(Br)c1=O [Compound 24, ethyl 5-bromo-2-(3,4-dichlorophenyl)-1-ethyl-6-(imidazol-1-ylmethyl)-4-oxo-pyridine-3-carboxylate] | 1 (1=0-20%) | 1 (1=0-20%) | 3 (3=41-60%) | 1 (1=0-20%) | 1 (1=0-20%) | 1 (1=0-20%) | 1 (1=0-20%) | 1 (1=0-20%) | 1 (1=0-20%) | 2 (2=21-40%) | 1 (1=0-20%) | 1 (1=0-20%) |
| CCn1c(Cn2nc3ccccc3n2)cc(=O)c(C(=O)O)c1-c1ccc(Cl)c(Cl)c1 [Compound 55, 6-(benzotriazol-2-ylmethyl)-2-(3,4-dichlorophenyl)-1-ethyl-4-oxo-pyridine-3-carboxylic acid] | 1 (1=0-20%) | 2 (2=21-40%) | 1 (1=0-20%) | 3 (3=41-60%) | 3 (3=41-60%) | 0 | 0 | 2 (2=21-40%) | 0 | 0 | 1 (1=0-20%) | 1 (1=0-20%) |
| CCOC(=O)c1c(-c2ccc(Cl)c(Cl)c2)n(CC)c(Cn2nccc2Cl)cc1=O [Compound 67, ethyl 6-[(5-chloropyrazolo-1-yl)methyl]-2-(3,4-dichlorophenyl)-1-ethyl-4-oxo-pyridine-3-carboxylate] |  |  |  |  |  |  | 0 | 0 | 0 | 0 | 1 (1=0-20%) | 1 (1=0-20%) |
